Results published in paper PMC6722743, “Whole Conversion of Soybean Molasses into Isomaltulose and Ethanol by Combining Enzymatic Hydrolysis and Successive Selective Fermentations” (Biomolecules, 2019).

Molecular target: T1, RMgase (recombinant alpha-galactosidase) (Rhizomucor miehei, UniProt H8Y263)
T1 construct: codon-optimised synthetic gene with XPR2 signal peptide at 5' end (vector pINA1312), secreted by Yarrowia lipolytica transformant G82; purified by DEAE-Sepharose for pH/temperature profiles
T1 sequence (H8Y263 18-751): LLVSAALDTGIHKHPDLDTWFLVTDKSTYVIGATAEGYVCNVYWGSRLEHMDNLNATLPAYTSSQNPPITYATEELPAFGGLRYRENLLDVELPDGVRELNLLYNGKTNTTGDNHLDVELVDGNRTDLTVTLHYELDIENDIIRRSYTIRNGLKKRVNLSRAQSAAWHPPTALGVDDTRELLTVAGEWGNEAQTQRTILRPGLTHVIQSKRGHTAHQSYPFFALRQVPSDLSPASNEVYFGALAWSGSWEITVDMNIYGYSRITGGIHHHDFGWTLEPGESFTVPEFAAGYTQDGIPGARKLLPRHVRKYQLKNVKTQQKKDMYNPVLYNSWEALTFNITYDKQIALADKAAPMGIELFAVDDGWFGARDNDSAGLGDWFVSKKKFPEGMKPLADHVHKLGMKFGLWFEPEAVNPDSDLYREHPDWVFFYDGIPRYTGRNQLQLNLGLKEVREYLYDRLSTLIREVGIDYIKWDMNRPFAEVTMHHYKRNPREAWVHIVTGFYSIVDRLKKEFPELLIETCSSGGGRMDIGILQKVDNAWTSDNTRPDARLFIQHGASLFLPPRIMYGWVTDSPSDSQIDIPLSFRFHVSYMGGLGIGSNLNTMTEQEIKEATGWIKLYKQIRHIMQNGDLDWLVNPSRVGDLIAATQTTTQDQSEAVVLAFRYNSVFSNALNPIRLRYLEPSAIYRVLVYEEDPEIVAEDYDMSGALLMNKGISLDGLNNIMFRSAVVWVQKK
Assay: sugar hydrolysis, activity of secreted enzyme
Type: biochemical

**Q.** With `OC[C@H]1O[C@H](OC[C@H]2O[C@H](OC[C@H]3O[C@H](O[C@]4(CO)O[C@H](CO)[C@@H](O)[C@@H]4O)[C@H](O)[C@@H](O)[C@@H]3O)[C@H](O)[C@@H](O)[C@H]2O)[C@H](O)[C@@H](O)[C@H]1O` [stachyose] as the compound, how does the “sugar hydrolysis, activity of secreted enzyme” value read?
**A.** The value was “the α-galactosidase activity using pNPG, stachyose, raffinose and melibiose as substrate”.
